Measured values reported in patent US20240360067A1, “DERIVATIVES OF ITACONIC ACID AND THEIR USE AS ANTI-INFLAMMATORY AGENTS” (Sitryx Therapeutics Limited, priority 2021, published 2024).
pEC50, pIC50: −log10 of the molar value. Values belong to the molecule of their own block, whether it stands above or below them.

Experiments:
IL-6 = assay: THP-1 AlphaLISA IL-6 cytokine assay (PMA-differentiated THP-1, LPS then nigericin); type: cell-based; conditions: differentiated THP-1 cells, 30 min pre-incubation, LPS 24 hr, nigericin 1 hour
Description: (§1) Measuring Inhibitory Effects on IL-1β, and IL-6 Cytokine Output from THP-1s
(§2) The cytokine inhibition profiles of compounds of formula (I) were determined in a differentiated THP-1 cell assay. All assays were performed in RPMI-1640 growth medium (Gibco), supplemented with 10% fetal bovine serum (FBS; Gibco), 1% penicillin-streptomycin and 1% sodium pyruvate unless specified otherwise. The IL-1β and IL-6 cytokine inhibition assays were each run in a background of differentiated THP-1 cells as described below. All reagents described were from Sigma-Aldrich unless specified otherwise. Compounds were prepared as 10 mM DMSO stocks.
(§3) THP-1 cells were expanded as a suspension up to 80% confluence in appropriate growth medium. Cells were harvested, suspended, and treated with an appropriate concentration of phorbol 12-myristate 13-acetate (PMA) over a 72 hr period (37° C./5% CO2).
(§4) Following 72 hrs of THP-1 cell incubation, cellular medium was removed and replaced with fresh growth media containing 1% of FBS. Working concentrations of compounds were prepared separately in 10% FBS treated growth medium and pre-incubated with the cells for 30 minutes (37° C./5% CO2). Following the 30 minute compound pre-incubation, THP-1s were treated with an appropriate concentration of LPS and the THP-1s were subsequently incubated for a 24 hr period (37° C./5% CO2). An appropriate final concentration of Nigericin was then dispensed into the THP-1 plates and incubated for 1 hour (37° C./5% CO2) before THP-1 supernatants were harvested and collected in separate polypropylene 96-well holding plates.
(§5) Reagents from each of the IL-1β and IL-6 commercial kits (Perkin Elmer) were prepared and run according to the manufacturer's instructions. Subsequently, fluorescence signal detection in a microplate reader was measured (EnVision® Multilabel Reader, Perkin Elmer).
(§6) Percentage inhibition was calculated per cytokine by normalizing the sample data to the high and low controls used within each plate (+/−LPS respectively).

[1] = Hepatocyte stability assay, mouse; type: in vitro ADME; conditions: 10 μM compound, 0.5×10^6 cells/mL, 60 min; for half-life at 10 μM: cryo-preserved hepatocytes, read-out: T½
Source text: (§7) Defrosted cryo-preserved hepatocytes (viability >70%) were used to determine the metabolic stability of a compound via calculation of intrinsic clearance (CIint; a measure of the removal of a compound from the liver in the absence of blood flow and cell binding). Clearance data are particularly important for in vitro work as they can be used in combination with in vivo data to predict the half-life and oral bioavailability of a drug.
(§8) The metabolic stability in hepatocytes assay involved a time-dependent reaction using both positive and negative controls. The cells must be pre-incubated at 37° C. then spiked with test compound (and positive control); samples taken at pre-determined time intervals were analysed to monitor the change in concentration of the initial drug compound over 60 minutes. A buffer incubation reaction (with no hepatocytes present) acted as a negative control and two cocktail solutions, containing compounds with known high and low clearance values (verapamil/7-hydroxycoumarin and propranolol/diltiazem), acted as positive controls. • 1. The assay was run with a cell concentration of 0.5×10^6 cells/mL in Leibovitz buffer. • 2. All compounds and controls were run in duplicate. • 3. Compound concentration was 10 μM. • 4. All compounds and controls were incubated with both cells and buffer to show turnover is due to hepatic metabolism. • 5. All wells on the incubation plate had 326.7 μL of either cells or buffer added. • 6. Prior to assay, cell and buffer-only incubation plates were preincubated for 10 mins at 37° C. • 7. The assay was initiated by adding compounds, 3.3 μL of 1 mM in 10% DMSO-90% Buffer; final DMSO concentration is 0.1%. • 8. Samples were taken at regular timepoints (0, 5, 10, 20, 40, 60 min) until 60 mins. • 9. Sample volume was 40 μL and added to 160 μL of crash solvent (acetonitrile with internal standard) and stored on ice. • 10. At the end of the assay, the crash plates were centrifuged at 3500 rpm for 20 mins at 4° C. • 11. 80 μL of clear supernatant was removed and mixed with 80 μL of deionised water before being analysed by LC-MS/MS.
(§9) Raw LC-MS/MS data were exported to, and analysed in, Microsoft Excel for determination of intrinsic clearance. The percentage remaining of a compound was monitored using the peak area of the initial concentration as 100%. Intrinsic clearance and half-life values were calculated using a graph of the natural log of percentage remaining versus the time of reaction in minutes.

[2] = Hepatocyte stability assay, human; type: in vitro ADME; conditions: 10 μM compound, 0.5×10^6 cells/mL, 60 min; for half-life at 10 μM: cryo-preserved hepatocytes, read-out: T½
Source text: as §7, §8, §9

IL-1β = assay: THP-1 AlphaLISA IL-1β cytokine assay (PMA-differentiated THP-1, LPS then nigericin); type: cell-based; conditions: 30 min pre-incubation, LPS 24 hr, nigericin 1 hour
Description: as §1, §2, §3, §4, §5, §6

NRF2 = NRF2 activation assay (DiscoverX PathHunter NRF2 translocation kit, U2OS cells); type: cell-based; conditions: for pEC50: U2OS PathHunter cells, 6 hours; for Emax: U2OS
[3] = Homo sapiens, THP-1, differentiated THP-1 cells
[4] = Homo sapiens, +GSH, normalised to dimethyl fumarate high control
[5] = Homo sapiens, −GSH, normalised to dimethyl fumarate high control

Compound: C=C(CC(=O)O)C(=O)OC1CCCc2cc(C(F)(F)F)ccc21 (single isomer, unassigned) [Example 7, 3-(((6-(trifluoromethyl)-1,2,3,4-tetrahydronaphthalen-1-yl)oxy)carbonyl)but-3-enoic acid]
pIC50 (IL-6; Homo sapiens): 4.18 | CIint ([1]; Mouse hepatocytes): 11 μL min^−1 10^−6 cells | half-life at 10 μM [1]: 1.97 h | CIint ([2]; Human hepatocytes): 8 μL min^−1 10^−6 cells | half-life at 10 μM [2]: 3.65 h | pIC50 (IL-1β; [3]): 5.10

Compound: C=C(CC(=O)O)C(=O)OC [1-monomethyl itaconate, reference compound]
pIC50 (IL-6): < 4.00 | pEC50 (NRF2; −GSH): 4.52 | NRF2 activation Emax, −GSH (NRF2; −GSH, normalised to dimethyl fumarate high control): 44% | pIC50 (IL-1β; differentiated THP-1 cells): < 4.00

Compound: C=C(CC(=O)OCCCCCCCC)C(=O)O [4-octyl itaconate, reference compound]
CIint ([1]; Mouse hepatocytes): 351 μL min^−1 10^−6 cells | T½ ([1]; Mouse hepatocytes): 4 min | CIint ([2]; Human hepatocytes): 401 μL min^−1 10^−6 cells | T½ ([2]; Human hepatocytes): 4 min

Compound: C=C(CC(=O)O)C(=O)O[C@@H](C)c1ccc(C(F)(F)F)cc1 [Example 1, (S)-3-((1-(4-(trifluoromethyl)phenyl)ethoxy)carbonyl)but-3-enoic acid]
pIC50 (IL-6; Homo sapiens): 4.26 | CIint ([1]; Mouse hepatocytes): <3 μL min^−1 10^−6 cells | half-life at 10 μM [1]: > 7.67 h | CIint ([2]; Human hepatocytes): <3 μL min^−1 10^−6 cells | half-life at 10 μM [2]: > 7.67 h | pIC50 (IL-1β; [3]): 5.27

Compound: C=C(CC(=O)O)C(=O)OC1(c2ccc(C(F)(F)F)cc2)CCC1 [Example 2, 3-((1-(4-(trifluoromethyl)phenyl)cyclobutoxy)carbonyl)but-3-enoic acid]
pIC50 (IL-6; Homo sapiens): < 4.00 | CIint ([1]; Mouse hepatocytes): <3 μL min^−1 10^−6 cells | half-life at 10 μM [1]: > 7.67 h | CIint ([2]; Human hepatocytes): 9 μL min^−1 10^−6 cells | half-life at 10 μM [2]: 2.1 h | Emax (NRF2; [4]): 14% | Emax (NRF2; [5]): 26% | pEC50 (NRF2; Homo sapiens, +GSH): < 4.00 | pEC50 (NRF2; Homo sapiens, −GSH): < 4.00 | pIC50 (IL-1β; [3]): 5.36

Compound: C=C(CC(=O)O)C(=O)OC1(c2ccc(C(F)(F)F)c(F)c2)CCC1 [Example 3, 3-((1-(3-fluoro-4-(trifluoromethyl)phenyl)cyclobutoxy)carbonyl)but-3-enoic acid]
pIC50 (IL-6; Homo sapiens): 4.27 | CIint ([1]; Mouse hepatocytes): <3 μL min^−1 10^−6 cells | half-life at 10 μM [1]: > 7.67 h | CIint ([2]; Human hepatocytes): <3 μL min^−1 10^−6 cells | half-life at 10 μM [2]: > 7.67 h | pIC50 (IL-1β; [3]): 5.32

Compound: C=C(CC(=O)O)C(=O)OC1(c2ccc(C(F)(F)F)cc2)COC1 [Example 4, 3-(((3-(4-(trifluoromethyl)phenyl)oxetan-3-yl)oxy)carbonyl)but-3-enoic acid]
pIC50 (IL-6; Homo sapiens): < 4.00 | CIint ([1]; Mouse hepatocytes): 8 μL min^−1 10^−6 cells | half-life at 10 μM [1]: 3.65 h | CIint ([2]; Human hepatocytes): 6 μL min^−1 10^−6 cells | half-life at 10 μM [2]: 5.23 h | pIC50 (IL-1β; [3]): 5.04

Compound: C=C(CC(=O)O)C(=O)OC1(c2ccc(C(F)(F)F)cn2)CCC1 [Example 5, 3-((1-(5-(trifluoromethyl)pyridin-2-yl)cyclobutoxy)carbonyl)but-3-enoic acid]
pIC50 (IL-6; Homo sapiens): < 4.50 | CIint ([1]; Mouse hepatocytes): <3 μL min^−1 10^−6 cells | half-life at 10 μM [1]: > 7.67 h | CIint ([2]; Human hepatocytes): <3 μL min^−1 10^−6 cells | half-life at 10 μM [2]: > 7.67 h | pIC50 (IL-1β; [3]): 5.05

Compound: C=C(CC(=O)O)C(=O)OC1(c2ccc(C(F)(F)F)s2)CCC1 [Example 6, 3-((1-(5-(trifluoromethyl)thiophen-2-yl)cyclobutoxy)carbonyl)but-3-enoic acid]
pIC50 (IL-6; Homo sapiens): < 4.00 | CIint ([1]; Mouse hepatocytes): <3 μL min^−1 10^−6 cells | half-life at 10 μM [1]: > 7.67 h | CIint ([2]; Human hepatocytes): 13 μL min^−1 10^−6 cells | half-life at 10 μM [2]: 2.38 h | pIC50 (IL-1β; [3]): 5.02

Compound: C=C(CC(=O)OC)C(=O)OC [dimethyl itaconate, reference compound]
pIC50 (IL-6; Homo sapiens): < 4.00 | pIC50 (IL-1β; [3]): < 4.00

Continued, in another order:

pIC50 (IL-6; Homo sapiens): 4.97 | CIint ([1]; Mouse hepatocytes): >460 μL min^−1 10^−6 cells | half-life at 10 μM [1]: < 0.05 h | CIint ([2]; Human hepatocytes): >460 μL min^−1 10^−6 cells | half-life at 10 μM [2]: < 0.05 h | pEC50 (NRF2; Homo sapiens, +GSH): < 4.00 | pEC50 (NRF2; Homo sapiens, −GSH): 4.29 | pIC50 (IL-1β; [3]): 5.12
Compound: C=C(CC(=O)OC)C(=O)OC1(c2ccc(C(F)(F)F)cc2)CCC1 [Example 8, 4-methyl 1-(1-(4-(trifluoromethyl)phenyl)cyclobutyl) 2-methylenesuccinate]
Emax (NRF2; [4]): 38% | Emax (NRF2; [5]): 51%

pIC50 (IL-6; Homo sapiens): 4.95 | CIint ([1]; Mouse hepatocytes): 449 μL min^−1 10^−6 cells | half-life at 10 μM [1]: 0.05 h | CIint ([2]; Human hepatocytes): 27 μL min^−1 10^−6 cells | half-life at 10 μM [2]: 0.733 h | pIC50 (IL-1β; [3]): 4.90
Compound: C=C(CC(=O)NC)C(=O)OC1(c2ccc(C(F)(F)F)cc2)CCC1 [Example 9, 1-(4-(trifluoromethyl)phenyl)cyclobutyl 4-(methylamino)-2-methylene-4-oxobutanoate]

pIC50 (IL-6; Homo sapiens): 4.86 | CIint ([1]; Mouse hepatocytes): >460 μL min^−1 10^−6 cells | half-life at 10 μM [1]: < 0.05 h | CIint ([2]; Human hepatocytes): 98 μL min^−1 10^−6 cells | half-life at 10 μM [2]: 0.2 h | pIC50 (IL-1β; [3]): 4.22
Compound: C=C(CC(=O)N(C)C)C(=O)OC1(c2ccc(C(F)(F)F)cc2)CCC1 [Example 10, 1-(4-(trifluoromethyl)phenyl)cyclobutyl 4-(dimethylamino)-2-methylene-4-oxobutanoate]

pIC50 (IL-6; Homo sapiens): 4.88 | CIint ([1]; Mouse hepatocytes): 162 μL min^−1 10^−6 cells | half-life at 10 μM [1]: 0.15 h | CIint ([2]; Human hepatocytes): 9 μL min^−1 10^−6 cells | half-life at 10 μM [2]: 2.32 h | pEC50 (NRF2; Homo sapiens, +GSH): 4.34 | pEC50 (NRF2; Homo sapiens, −GSH): 4.48 | pIC50 (IL-1β; [3]): 5.00
Compound: C=C(CC(N)=O)C(=O)OC1(c2ccc(C(F)(F)F)cc2)CCC1 [Example 11, 1-(4-(trifluoromethyl)phenyl)cyclobutyl 4-amino-2-methylene-4-oxobutanoate]
Emax (NRF2; [4]): 100% | Emax (NRF2; [5]): 117%

pIC50 (IL-6; Homo sapiens): 5.40 | CIint ([1]; Mouse hepatocytes): 138 μL min^−1 10^−6 cells | half-life at 10 μM [1]: 0.15 h | CIint ([2]; Human hepatocytes): 59 μL min^−1 10^−6 cells | half-life at 10 μM [2]: 0.417 h | pIC50 (IL-1β; [3]): 5.51
Compound: C=C(CC(=O)NCCN(C)C)C(=O)OC1(c2ccc(C(F)(F)F)cc2)CCC1 [Example 12, 1-(4-(trifluoromethyl)phenyl)cyclobutyl 4-((2-(dimethylamino)ethyl)amino)-2-methylene-4-oxobutanoate]

pIC50 (IL-6; Homo sapiens): 5.28 | CIint ([1]; Mouse hepatocytes): >460 μL min^−1 10^−6 cells | half-life at 10 μM [1]: < 0.05 h | CIint ([2]; Human hepatocytes): 114 μL min^−1 10^−6 cells | half-life at 10 μM [2]: 0.183 h | pIC50 (IL-1β; [3]): 5.23
Compound: C=C(CC(=O)NCc1nccn1C)C(=O)OC1(c2ccc(C(F)(F)F)cc2)CCC1 [Example 16, 1-(4-(trifluoromethyl)phenyl)cyclobutyl 4-(((1-methyl-1H-imidazol-2-yl)methyl)amino)-2-methylene-4-oxobutanoate]

pIC50 (IL-6; Homo sapiens): 4.91 | pIC50 (IL-1β; [3]): 4.82
Compound: C=C(CC(=O)NC(CO)C(N)=O)C(=O)OC1(c2ccc(C(F)(F)F)cc2)CCC1 (stereo not drawn) [Example 17, 1-(4-(trifluoromethyl)phenyl)cyclobutyl 4-((1-amino-3-hydroxy-1-oxopropan-2-yl)amino)-2-methylene-4-oxobutanoate]
